Experimental data from US6828339B2, “Amlodipine salt forms and processes for preparing them” (Synthon BV, priority 2001, dated 2004).

Key:
Assay type in all cases: physicochemical
[1] = Annealing of the dihydrate, form checked by IR
Procedure: 1(d). A sample from example 1(a) was annealed for 10 minutes at 90° C. while another sample of the same product was annealed for 30 minutes at 145° C. […] The IR for the sample annealed for 10 minutes is as shown in FIG. 4 and the IR for the sample annealed for 30 minutes is as shown in FIG. 5.

[2] = Weight loss on drying in a vacuum oven; details: vacuum oven at 40° C. for 65 hours
Procedure: 1(b). 735.1 mg of the product of example 1(a) was dried in a vacuum oven at 40° C. for 65 hours. The weight loss was 0.043 g or 5.85%, which corresponds to 1.9 moles of water per mole of amlodipine.

[3] = Weight gain of dried (anhydrate) salt form on exposure to air; details: exposed to air
Excerpt: 1(c). A sample of the anhydrate formed in example 1(b) was exposed to air and the weight gain recorded as follows: […]

[4] = Stability in solid state and in solution
Light sensitivity = details: compared with known anhydrate
[5] = compared with known prior art anhydrate

What does the source list for “amlodipine besylate dihydrate [example 1(a)]”?
form after annealing (IR) ([1]; annealed for 10 minutes at 90° C.): converted to the known anhydrate form; form after annealing (IR) ([1]; annealed for 30 minutes at 145° C.): converted to the known anhydrate form; moles of water per mole of amlodipine lost [2]: 1.9 mol

What does the source list for CCOC(=O)C1=C(COCCN)NC(C)=C(C(=O)OC)C1c1ccccc1Cl.O=S(=O)(O)c1ccccc1 (centres unmarked) [example 1(b)]?
moles of water taken up for one mole of amlodipine ([3]; 21 hour): two; Weight after 30 min ([3]; weight at start 103.1 mg): 105.7 mg; Weight after 1 hour ([3]; weight at start 103.1 mg): 107.3 mg; Weight after 3.5 hour ([3]; weight at start 103.1 mg): 109.3 mg; Weight after 21 hour ([3]; weight at start 103.1 mg): 109.3 mg

With amlodipine besylate monohydrate as the molecule, how does the “stability in solid state” value [4, 5] read?
The value was “equivalent to the known prior art amlodipine besylate anhydrate form”.

And the stability in solution [4, 5]?
Its stability in solution is “equivalent to the known prior art amlodipine besylate anhydrate form”.

And the “stability of hydrate form” value ([4]; monohydrate compared with dihydrate, conversion by heating)?
The value was “more stable than the dihydrate form”.

And the light sensitivity (Light sensitivity)?
The light sensitivity was “slightly less in comparison to the known anhydrate”.

Which results are given for CCOC(=O)C1=C(COCCN)NC(C)=C(C(=O)OC)C1c1ccccc1Cl.O=S(=O)(O)c1ccccc1 (centres unmarked) [example 2(a)]?
mole of water taken up for one mole of amlodipine ([3]; 21 hour): one; Weight after 30 min ([3]; weight at start 318.6 mg): 320.3 mg; Weight after 1 hour ([3]; weight at start 318.6 mg): 323.9 mg; Weight after 3.5 hour ([3]; weight at start 318.6 mg): 328.2 mg; Weight after 21 hour ([3]; weight at start 318.6 mg): 328.2 mg
